Values quoted from earlier work in US20090054377A1, “COMPOSITIONS AND METHODS FOR SMOKING CESSATION” (MODUS BIOLOGICAL MEMBRANES LTD., priority 2004, published 2009).
Read-outs that look alike come from different tables or passages of the source.

Legend:
smokers [1] = test system: smokers
smokers [2] = conditions: in vivo
[3] = other smoking cessation remedies

For `CC(NC(C)(C)C)C(=O)c1cccc(Cl)c1` (stereo not shown) [Bupropion (Zyban), Bupropion], the “% Quitters” value (smokers [1]; 300 mg/day) is listed as 25%, the “Absolute quit rate (quit rate − quit rate of placebo)” value (smokers [1]; 300 mg/day) is listed as 11 and the “% Quitters” value (smokers [1]; [3]) is listed as 22.5%. For the same compound, the “Absolute quit rate (quit rate − quit rate of placebo)” value (smokers [1]; [3]) was 13.5, the “Adverse Events: Anxiety” value (smokers [2]) was 8% and the “Adverse Events: Constipation” value (smokers [2]) was 8%. For the same compound, the “Adverse Events: Diarrhea” value (smokers [2]) was 4%, the “Adverse Events: Dizziness” value (smokers [2]) was 8-10% and the “Adverse Events: Dream abnormality” value (smokers [2]) was 5%. The “Adverse Events: Dry Mouth” value (smokers [2]) was 1-11%, the “Adverse Events: Insomnia” value (smokers [2]) was 31-40% and the “Adverse Events: Rhinitis” value (smokers [2]) was 12%. The “Adverse Events: Seizures” value (smokers [2]) was 0.4%.
